Measured values taken from patent US8703988B2, “Self-assembled nanostructures” (Xerox Corporation, priority 2010, dated 2014).
“Also recorded” adds a separate entry of the source.

Legend:
[1] = Gelation test (gelator ability in solvents, vial inversion); type: physicochemical; set-up: key: I = insoluble; P = precipitate; S = solution; VS = viscous solution; G = gel; PG = partial gel; conditions: concentration in wt % in parentheses in each cell
Description: A number of characterization methods are useful for detecting and characterizing self-assembled nanostructures from alkylated derivatives of aromatic acids. The simplest test is to observe any changes in viscosity (rheology) of the liquid containing the alkylated compound relative to the neat liquid alone. […] The increase in viscosity and gelation of liquids is known to occur due to the presence and entanglement of long, 1D aggregates.
To vials with a screw cap lids (4 mL capacity) were added alkylated derivatives of aromatic acids as solids (1-100 mg) and a solvent (1 mL). The mixture was then sonicated and heated until clear solutions were obtained. After cooling and standing at room temperature for at least 30 min., the sample was inverted and inspected visually.

[2] = Self-assembled nanostructures observed by SEM and STEM; type: physicochemical
Source text: Microscopy techniques such as optical light microscopy, scanning electron microscopy (SEM), transmission electron microscopy (TEM), atomic force microscopy (AFM)/scanning probe microscopy (SPM), and fluorescence microscopy are useful for determining the size and morphology of the nano (and micro) structures formed from alkylated derivatives of aromatic acids. Samples are typically prepared by depositing a drop of the liquid composition containing the nanostructures onto an appropriate sample substrate such as a carbon film coated copper mesh TEM grid, removing the excess liquid by blotting with filter paper, and then allowing to dry prior to analysis. Dynamic light scattering is also useful for detecting the presence of particles between 1 nm and 1 μm in size, measuring the size/size distribution of the dispersed particles. Rheometry is useful for determining the viscoelastic properties and thermal phase transitions for compositions of the self-assembled nanostructures. X-ray diffraction is useful for characterizing the structure of the self-assembled nanostructures size as phase identification, crystallinity, phase transitions, crystal structure refinement and determination, and size and strain broadening of crystallite nanostructures. NMR spectroscopy is useful in detecting the formation intermolecular noncovalent interactions stabilizing the nanostructures, their diffusion properties, as well as phase transitions. UV-Vis can be used for detecting the presence of nanostructures as well as confirming the presence of intermolecular pi-stacking interactions. FT-IR spectroscopy is also useful for the detection of hydrogen-bonding interactions involved in stabilizing the self-assembled nanostructures. Differential Scanning calorimetry (DSC) is another useful characterization technique, which enables the identification of thermal phase transitions within the compositions containing the nanostructures.
This example describes the self-assembled nanostructures formed from alkylated derivatives of aromatic acids deposited onto substrates observed by Scanning Electron and Scanning Transmission Electron Microscopy (SEM and STEM, respectively).
Microscopy samples are prepared by mixing the alkylated derivatives of aromatic acids as solids with a solvent, subjecting the mixture to bath sonication, and then heating to form a clear solution. The solutions are then cooled to room temperature and allowed to age for desired periods of time prior to microscopy sample preparation. After cooling, the samples may be clear solutions, turbid colloidal solutions, or more opaque dispersions. Microscopy samples are prepared for analysis by depositing a drop on thin carbon film coated copper mesh grids, allowing the drop to remain on the film for a desired period of time, followed by wicking away the excess solvent with filter paper and allowing to dry. Table 5 summarizes examples of compositions containing nanostructures of alkylated derivatives of selected aromatic acids for this invention. FIGS. 1 to 7 show Scanning Electron Microscopy and Scanning Transmission Electron Microscopy images of the nanostructures formed from alkylated derivatives of selected aromatic acids.

[3] = solvent H2O, sonicated, heated, cooled, room temperature at least 30 min, vial inverted
[4] = Xylenes:THF (1:1), 1.3 mg/mL, fibrils
[5] = Toluene, 0.1 mg/mL, bundles of fibrils

| SMILES | gelator ability (state of sample) ([1]; solvent CHCl3) | gelator ability (state of sample) ([1]; solvent Ethylene Glycol) | gelator ability (state of sample) [1, 3] | gelator ability (state of sample) ([1]; solvent Hexadecane) | gelator ability (state of sample) ([1]; solvent Hexanes) | gelator ability (state of sample) ([1]; solvent MeOH) | gelator ability (state of sample) ([1]; solvent Toluene) | gelator ability (state of sample) ([1]; solvent Decalin) | gelator ability (state of sample) ([1]; solvent Dimethoxyethane) | gelator ability (state of sample) ([1]; solvent Xylenes) | Description (nanostructure) ([2]; Chloroform, 0.1 mg/mL) | L ([2]; Chloroform, 0.1 mg/mL, fibrils) | W ([2]; Chloroform, 0.1 mg/mL, fibrils) | gelator ability (state of sample) ([1]; solvent Cyclohexane) | other results |
| --- | --- | --- | --- | --- | --- | --- | --- | --- | --- | --- | --- | --- | --- | --- | --- |
| CCCC(=O)Nc1cc(C(=O)O)cc(C(=O)O)c1 [compound 45, 5-(butyramido)isophthalic acid] | I (0.1) | S (0.1) | I (0.1) | I (1.1) | I (0.1) | S | I (1.3) | – | – | – | – | – | – | – | L [2, 4]: 50-1000 nm; W [2, 4]: 3-6 nm; L ([2]; Xylenes:THF (1:1), 1.3 mg/mL, sheets): 2000-10000 nm |
| CCCCCCCCCCCCCCCCCCNC(=O)Nc1cc(C(=O)O)cc(C(=O)O)c1 [compound 56] | I (0.1) | P (0.5) | I (0.1) | I (0.1) | – | G (2.0) | I (0.1) | G (2.3) | S (1.0) | G (2.0) | Fibrils | >1000 nm | 5-10 nm | – | – |
| CCCCCCCCCCCCC(CCCCCCCCCC)C(=O)Nc1cc(C(N)=O)cc(C(N)=O)c1 (stereo not shown) [compound 74, 5-(2-decyltetradecanamido)isophthalamide] | P (0.1) | P (2.5) | I (0.1) | – | I (0.1) | S (3.0) | I (0.5) | I (2.0) | S (0.1) | I (2.0) | Fibrils | 50-1000 nm | 5-10 nm | I (0.1) | Description (nanostructure) ([2]; Chloroform, 1.0 mg/mL): Fibers; L ([2]; Chloroform, 1.0 mg/mL, fibers): 300-800 nm; W ([2]; Chloroform, 1.0 mg/mL, fibers): 25-200 nm; Description (nanostructure) ([2]; EtOH:H2O, 1.0 mg/mL): Fibers; also recorded: Fibrils; L ([2]; EtOH:H2O, 1.0 mg/mL, fibers): >5000 nm; W ([2]; EtOH:H2O, 1.0 mg/mL, fibers): 50-250 nm; L ([2]; EtOH:H2O, 1.0 mg/mL, fibrils): 10-100 nm; W ([2]; EtOH:H2O, 1.0 mg/mL, fibrils): 5-10 nm |
| CCCCCCCCCCCCC(CCCCCCCCCC)C(=O)Nc1cc(C(=O)O)cc(C(=O)O)c1 (stereo not shown) [compound 53, 5-(2-decyltetradecanamido)isophthalic acid] | G (0.4) | PG (2.0) | I (0.1) | G (1) | P (0.2), | S (0.1) | G (1.0) | G (0.5) | G (0.6) | G (1) | – | – | – | G (1.0) | gelator ability (state of sample) ([1]; solvent Benzene): G (0.4); gelator ability (state of sample) ([1]; solvent Dodecane): G (1); Description (nanostructure) ([2]; Toluene, 0.1 mg/mL): Bundles of fibrils; L [2, 5]: >1000 nm; W [2, 5]: 20-100 nm; L ([2]; Toluene, 0.1 mg/mL, fibrils): >1000 nm; W ([2]; Toluene, 0.1 mg/mL, fibrils): 5-10 nm |
